ChEMBL document CHEMBL1201862, “PubChem BioAssay data set” (2004)
Each block holds one compound with its values, some of them ahead of it. Active and inactive are the calls of the source.

Key:
[1] = CTGF mRNA reduction under YAP1 overexpression, dose response, mechanism study for YAP1 pathway inhibitor project, DLD1 cells, RT-qPCR, cherry-pick (AID 1053127); type: functional, cell-based; conditions: DLD-1
[2] = YAP1 pathway inhibition via CTGF transcript levels, dose response, cell-based, DLD1 colon cancer, RT-qPCR, cherry-pick (AID 1053122); type: functional; conditions: Cancer cell lines
[3] = P. falciparum Dd2 growth inhibitors, dose response, SYBR Green, cherry-picked samples (AID 1159567); type: functional, cell-based
[4] = inhibitors of HIV Env-driven cell fusion, dose response, cherry-pick (AID 652057); type: functional, cell-based
[5] = HepG2 cell cytotoxicity, dose response, cytotoxicity control, cherry-picked samples (AID 1159577); type: functional, cell-based
HEK293 = assay: HEK293T cell cytotoxicity, dose response, cytotoxicity control, ATP luminescence, cherry-pick samples (AID 687005); type: functional, cell-based; conditions: Homo sapiens;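 further: cells exposed to compound for 48 hours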
[6] = HEK293 Cytotoxicity Assay Measured in Cell-Based System Using Plate Reader - 7071-01_Inhibitor_Dose_CherryPick_Activity_Set2.; type: functional
[7] = molecular target: Peroxisome proliferator-activated receptor gamma/Nuclear receptor coactivator 1 (Homo sapiens, UniProt P37231); assay: (§1) TR-FRET dose response biochemical High Throughput Screening assay for agonists of the steroid receptor coactivator 1 (SRC-1) recruitment by the peroxisome proliferator-activated receptor gamma (PPAR gamma): non-selective agonists. [Related pubchem assays (depositor defined):AID1300, AID1808, AID504735, AID631]; type: protein assay
[8] = molecular target: Peroxisome proliferator-activated receptor gamma/Nuclear receptor coactivator 3 (Homo sapiens, UniProt P37231); assay: as §1, with “3 (SRC-3)” for “1 (SRC-1)”, “assays: 1301 (Confirmation screen.), 1048 (Primary screen.)]” for “assays (depositor defined):AID1300, AID1808, AID504735, AID631]”; type: functional
[9] = molecular target: Peroxisome proliferator-activated receptor gamma/Nuclear receptor coactivator 2 (Homo sapiens, UniProt P37231); assay: TR-FRET dose response biochemical High Throughput Screening assay for agonists of the steroid receptor coactivator 2 (SRC-2) recruitment by the peroxisome proliferator-activated receptor gamma (PPAR gamma): non-selective agonists. [Related pubchem assays: 1297, 1032 ]; type: functional
Ephrin type-A receptor 4 = Ephrin type-A receptor 4 (Mus musculus, UniProt Q03137); assay: inhibitors of EphA4 binding to KYL peptide, primary screen, biochemical, colorimetric, mouse EphA4 (AID 689); type: functional
[10] = molecular target: T1, Polyadenylate-binding protein 1 (Homo sapiens, UniProt P11940); assay: PABP1 MLLE–PAM2 interaction inhibitors, dose response, miRNA deadenylation inhibitor project, biochemical, fluorescence polarization, Cy5-PAM2 peptide, secondary (AID 602260); type: functional; conditions: read-out: IC50_Mean
[11] = molecular target: T1, Polyadenylate-binding protein 1; assay: PABP1 MLLE–PAM2 binding inhibitor potency, dose response, biochemical, fluorescence polarization, FITC-PAM2 peptide (AID 602259); type: functional; conditions: read-out: IC50_Mean
Protein skinhead-1 = molecular target: T2, Protein skinhead-1 (Caenorhabditis elegans, UniProt P34707); type: functional
T2 sequence (P34707 whole entry): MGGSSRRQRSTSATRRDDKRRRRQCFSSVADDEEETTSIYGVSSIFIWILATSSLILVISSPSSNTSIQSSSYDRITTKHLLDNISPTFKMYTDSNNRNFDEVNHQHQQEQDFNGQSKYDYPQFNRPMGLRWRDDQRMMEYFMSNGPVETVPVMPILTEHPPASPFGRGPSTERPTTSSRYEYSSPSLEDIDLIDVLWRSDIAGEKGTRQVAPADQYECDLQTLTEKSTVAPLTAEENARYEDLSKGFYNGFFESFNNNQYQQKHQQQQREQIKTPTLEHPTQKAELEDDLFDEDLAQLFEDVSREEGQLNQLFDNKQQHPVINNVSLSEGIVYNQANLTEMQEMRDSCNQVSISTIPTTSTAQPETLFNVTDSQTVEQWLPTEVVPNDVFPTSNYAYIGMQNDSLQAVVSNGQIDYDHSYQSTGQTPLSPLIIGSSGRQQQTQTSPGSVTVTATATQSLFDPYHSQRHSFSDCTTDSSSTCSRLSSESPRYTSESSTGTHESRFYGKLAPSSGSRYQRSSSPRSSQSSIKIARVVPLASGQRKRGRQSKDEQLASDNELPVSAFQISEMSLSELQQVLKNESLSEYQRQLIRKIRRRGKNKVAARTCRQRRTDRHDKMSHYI

Paired box protein Pax-8 = Paired box protein Pax-8 (Homo sapiens, UniProt Q06710); assay: inhibitors of PAX8-driven TPO luciferase reporter, dose response, RMG-I cells, cherry-pick (AID 687027); type: functional, cell-based;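 further: luciferase reporter driven by Pax8 target thyroperoxidase promoter measured by SteadyGlo luminescence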
[12] = PAX2 cell-based inhibition, dose response, selectivity assay for PAX8 inhibitor project, plate reader, dry powder samples (AID 743048); type: functional;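 further: HEK293 cells carrying a WT1 promoter luciferase reporter driven by expressed Pax2; potency is for inhibition of Pax2 driven reporter signal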
[13] = cytotoxicity dependent on PAX8, dose response, cell-based, plate reader, dry powder (AID 743049); type: functional
[14] = half-maximal inhibitory concentration for glucagon-like peptide-1 release, STC-1 cell line, dose-response (AID 1117345); type: functional, cell-based
[15] = Glucagon-like peptide 1 release potency, NCI-H716 cell line, dose-response, half-maximal inhibitory concentration (AID 1117344); type: functional, cell-based
[16] = molecular target: NAD-dependent protein deacylase sirtuin-5, mitochondrial (Homo sapiens, UniProt Q9NXA8); assay: SIRT5 desuccinylase inhibitors, dose response, biochemical, fluorescence imaging, cherry-pick, set 5 (AID 720591);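 further: desuccinylation of succinyl peptide AMC substrate read as fluorescence after trypsin release; potency of inhibitors that lower fluorescence and may act on trypsin instead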
NAD-dependent protein deacylase sirtuin-5, mitochondrial, sequence (Q9NXA8 whole entry): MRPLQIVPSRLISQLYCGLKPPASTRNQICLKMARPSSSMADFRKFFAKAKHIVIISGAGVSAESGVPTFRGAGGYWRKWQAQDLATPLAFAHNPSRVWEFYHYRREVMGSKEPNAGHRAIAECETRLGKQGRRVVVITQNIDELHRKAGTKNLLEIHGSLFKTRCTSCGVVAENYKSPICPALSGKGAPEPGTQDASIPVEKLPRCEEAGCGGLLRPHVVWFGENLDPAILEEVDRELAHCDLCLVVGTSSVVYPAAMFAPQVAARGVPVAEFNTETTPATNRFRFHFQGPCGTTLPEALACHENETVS

T1 sequence (P11940 whole entry): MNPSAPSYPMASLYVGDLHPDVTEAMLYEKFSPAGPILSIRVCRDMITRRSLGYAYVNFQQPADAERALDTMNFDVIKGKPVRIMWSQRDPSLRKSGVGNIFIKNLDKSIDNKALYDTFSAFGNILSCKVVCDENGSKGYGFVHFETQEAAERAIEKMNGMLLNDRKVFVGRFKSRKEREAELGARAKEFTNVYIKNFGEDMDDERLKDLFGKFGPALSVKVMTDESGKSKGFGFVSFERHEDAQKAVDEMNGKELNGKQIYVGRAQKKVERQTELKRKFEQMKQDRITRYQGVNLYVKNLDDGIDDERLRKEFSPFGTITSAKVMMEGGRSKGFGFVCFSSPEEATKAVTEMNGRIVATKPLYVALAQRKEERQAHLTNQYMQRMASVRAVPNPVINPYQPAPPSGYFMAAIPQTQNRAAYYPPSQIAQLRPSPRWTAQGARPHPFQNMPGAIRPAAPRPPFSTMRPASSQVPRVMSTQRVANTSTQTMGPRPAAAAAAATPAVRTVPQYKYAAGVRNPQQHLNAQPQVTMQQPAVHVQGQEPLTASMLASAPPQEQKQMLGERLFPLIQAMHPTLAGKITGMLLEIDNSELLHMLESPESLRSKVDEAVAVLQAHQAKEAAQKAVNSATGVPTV
Ephrin type-A receptor 4, sequence (Q03137 whole entry): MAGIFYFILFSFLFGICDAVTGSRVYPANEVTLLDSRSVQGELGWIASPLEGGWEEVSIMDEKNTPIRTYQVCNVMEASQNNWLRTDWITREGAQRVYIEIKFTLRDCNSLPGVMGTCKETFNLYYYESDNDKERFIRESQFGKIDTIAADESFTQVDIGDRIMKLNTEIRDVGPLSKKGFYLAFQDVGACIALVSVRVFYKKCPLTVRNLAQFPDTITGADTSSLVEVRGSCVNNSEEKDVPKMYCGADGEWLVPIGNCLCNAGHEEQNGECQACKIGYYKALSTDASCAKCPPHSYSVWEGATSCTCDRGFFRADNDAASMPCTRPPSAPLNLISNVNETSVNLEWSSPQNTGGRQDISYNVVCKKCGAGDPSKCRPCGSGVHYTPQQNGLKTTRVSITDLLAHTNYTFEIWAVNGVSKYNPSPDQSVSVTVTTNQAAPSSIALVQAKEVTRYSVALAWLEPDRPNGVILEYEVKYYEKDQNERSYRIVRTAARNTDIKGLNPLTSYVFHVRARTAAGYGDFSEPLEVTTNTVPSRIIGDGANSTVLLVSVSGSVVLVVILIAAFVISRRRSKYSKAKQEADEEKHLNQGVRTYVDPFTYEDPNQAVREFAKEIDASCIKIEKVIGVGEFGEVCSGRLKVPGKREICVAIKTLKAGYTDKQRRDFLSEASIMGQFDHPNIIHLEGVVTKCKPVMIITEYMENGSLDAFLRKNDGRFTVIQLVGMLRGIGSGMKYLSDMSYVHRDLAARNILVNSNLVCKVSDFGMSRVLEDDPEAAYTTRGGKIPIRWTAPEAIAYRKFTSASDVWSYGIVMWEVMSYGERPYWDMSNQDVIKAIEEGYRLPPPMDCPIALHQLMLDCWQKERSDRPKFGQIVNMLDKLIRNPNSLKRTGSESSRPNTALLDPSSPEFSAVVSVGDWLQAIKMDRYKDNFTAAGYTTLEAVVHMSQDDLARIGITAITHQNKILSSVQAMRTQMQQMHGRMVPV
Paired box protein Pax-8, sequence (Q06710 whole entry): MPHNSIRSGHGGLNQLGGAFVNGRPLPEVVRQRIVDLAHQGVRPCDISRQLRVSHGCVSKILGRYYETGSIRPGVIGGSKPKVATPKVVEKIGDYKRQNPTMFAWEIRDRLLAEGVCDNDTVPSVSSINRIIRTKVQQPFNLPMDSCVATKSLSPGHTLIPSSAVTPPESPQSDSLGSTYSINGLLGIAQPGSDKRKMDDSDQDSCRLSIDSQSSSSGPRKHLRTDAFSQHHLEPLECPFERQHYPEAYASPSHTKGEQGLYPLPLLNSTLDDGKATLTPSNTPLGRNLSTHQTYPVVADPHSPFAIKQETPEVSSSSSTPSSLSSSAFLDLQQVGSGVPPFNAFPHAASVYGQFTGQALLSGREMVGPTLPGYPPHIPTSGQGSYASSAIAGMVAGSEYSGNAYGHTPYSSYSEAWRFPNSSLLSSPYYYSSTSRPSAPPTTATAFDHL
Peroxisome proliferator-activated receptor gamma/Nuclear receptor coactivator 2, sequence (P37231 whole entry): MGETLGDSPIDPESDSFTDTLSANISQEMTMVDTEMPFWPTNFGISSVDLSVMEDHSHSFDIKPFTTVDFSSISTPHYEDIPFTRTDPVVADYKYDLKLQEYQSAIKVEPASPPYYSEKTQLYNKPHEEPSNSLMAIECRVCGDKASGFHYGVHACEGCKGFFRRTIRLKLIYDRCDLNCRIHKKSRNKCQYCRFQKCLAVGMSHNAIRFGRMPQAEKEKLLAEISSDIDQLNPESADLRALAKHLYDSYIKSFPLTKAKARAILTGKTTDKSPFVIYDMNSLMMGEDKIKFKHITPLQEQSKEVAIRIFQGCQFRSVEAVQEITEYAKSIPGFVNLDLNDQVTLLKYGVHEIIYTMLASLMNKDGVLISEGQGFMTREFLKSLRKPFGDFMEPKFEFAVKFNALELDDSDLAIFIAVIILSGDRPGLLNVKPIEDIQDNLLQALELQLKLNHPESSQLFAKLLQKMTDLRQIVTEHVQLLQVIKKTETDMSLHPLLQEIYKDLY
Peroxisome proliferator-activated receptor gamma/Nuclear receptor coactivator 2, sequence (Q15596 whole entry, further chain): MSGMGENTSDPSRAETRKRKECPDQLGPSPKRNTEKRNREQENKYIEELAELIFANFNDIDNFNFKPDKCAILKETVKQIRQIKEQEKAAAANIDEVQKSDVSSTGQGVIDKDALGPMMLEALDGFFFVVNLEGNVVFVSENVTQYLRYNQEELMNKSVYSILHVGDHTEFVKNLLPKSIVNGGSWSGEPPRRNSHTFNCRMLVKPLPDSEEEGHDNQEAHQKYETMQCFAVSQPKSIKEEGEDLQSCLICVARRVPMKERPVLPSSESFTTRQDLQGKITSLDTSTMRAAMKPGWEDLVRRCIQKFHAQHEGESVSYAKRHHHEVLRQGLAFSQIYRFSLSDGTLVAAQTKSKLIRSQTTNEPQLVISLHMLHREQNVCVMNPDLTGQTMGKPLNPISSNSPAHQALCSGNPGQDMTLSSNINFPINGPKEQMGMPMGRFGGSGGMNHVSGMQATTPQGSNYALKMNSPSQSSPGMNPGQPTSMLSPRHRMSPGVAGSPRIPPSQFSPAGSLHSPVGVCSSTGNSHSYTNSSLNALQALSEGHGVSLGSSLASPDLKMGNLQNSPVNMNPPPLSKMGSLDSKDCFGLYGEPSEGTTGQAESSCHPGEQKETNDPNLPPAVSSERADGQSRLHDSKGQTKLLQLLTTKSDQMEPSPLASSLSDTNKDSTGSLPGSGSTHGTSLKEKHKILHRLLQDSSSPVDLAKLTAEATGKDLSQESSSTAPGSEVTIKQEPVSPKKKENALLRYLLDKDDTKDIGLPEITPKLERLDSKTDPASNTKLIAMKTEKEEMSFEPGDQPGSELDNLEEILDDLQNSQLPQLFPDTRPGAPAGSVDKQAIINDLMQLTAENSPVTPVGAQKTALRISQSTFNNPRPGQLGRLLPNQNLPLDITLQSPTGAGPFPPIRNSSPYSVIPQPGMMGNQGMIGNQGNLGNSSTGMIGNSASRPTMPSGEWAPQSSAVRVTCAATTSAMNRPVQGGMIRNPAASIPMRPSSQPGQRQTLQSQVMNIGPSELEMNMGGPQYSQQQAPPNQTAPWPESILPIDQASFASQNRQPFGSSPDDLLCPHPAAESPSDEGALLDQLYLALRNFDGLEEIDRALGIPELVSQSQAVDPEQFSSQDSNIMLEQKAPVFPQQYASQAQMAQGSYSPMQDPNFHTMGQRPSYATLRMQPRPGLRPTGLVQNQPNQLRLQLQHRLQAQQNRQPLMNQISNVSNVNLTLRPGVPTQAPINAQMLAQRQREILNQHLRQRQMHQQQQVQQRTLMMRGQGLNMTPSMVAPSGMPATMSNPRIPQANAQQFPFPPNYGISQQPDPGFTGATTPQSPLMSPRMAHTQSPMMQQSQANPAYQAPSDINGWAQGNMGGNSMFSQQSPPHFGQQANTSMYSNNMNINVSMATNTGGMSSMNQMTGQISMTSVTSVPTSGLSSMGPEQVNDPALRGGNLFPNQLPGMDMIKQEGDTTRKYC

Compound: COc1ccccc1NC(=O)N1CCCCN2[C@H](CO)[C@H](c3ccc(-c4cccc(C#N)c4)cc3)[C@@H]2C1
AC50 [1]: 11.6 µM (active) | AC50 [2]: 1.44 µM (active)

Compound: CCNC(=O)c1cc2c(c(-c3cccc(-c4ccccc4F)c3)n1)[C@@H](CCO)N(C(=O)CC1CC1)C2
AC50 [1]: 11 µM (active) | AC50 [3]: 5.87 µM (active)

Compound: COc1ccc2c3c(n(C)c2c1)[C@@H](CO)N(C(=O)C1CCOCC1)CC31CCN(Cc2cccc(F)c2)CC1
AC50 [4]: 0.629 µM (active) | AC50 [3]: 6.52 µM (active) | AC50 [5]: 10.8 µM (active)

Compound: O=C(CN(c1ccc(F)cc1)S(=O)(=O)c1ccccc1)NC1CCCCCC1
AC50 (HEK293): 33.4 µM (active) | AC50 [6]: 33.4 µM (active)

EC50 [7]: 3.8 µM (active) | EC50 [8]: 8.51 µM (active) | EC50 [9]: 3.37 µM (active) | IC50 (Ephrin type-A receptor 4): 15.8 µM (active) | IC50 [10]: > 66 µM (inactive) | IC50 [11]: > 66 µM (inactive) | IC50 (Protein skinhead-1): > 100 µM (inactive)
Compound: Cc1cc2cc(CNC(=O)c3ccc(S(=O)(=O)N4CCCCC4)cc3)ccc2n1C

Compound: C[C@H](CO)N1C[C@H](C)[C@H](CN(C)C(=O)Nc2ccc(-c3cccs3)cc2)OCc2cnnn2CCCC1=O
AC50 (Paired box protein Pax-8): < 0.26 µM (active) | AC50 [12]: > 70 µM (inactive) | AC50 [13]: 11.5 µM (active)

Compound: CN[C@@H]1[C@H](O)[C@H](NC)[C@H]2O[C@@]3(O)C(=O)C[C@@H](C)O[C@H]3O[C@@H]2[C@H]1O
IC50 [14]: > 40 µM (inactive) | IC50 [15]: > 40 µM (inactive)

AC50 [16]: > 30 µM (inactive)
Compound: COc1ccc(C(=O)NCC(=O)OCc2ccccc2F)cc1
